Values quoted from earlier work in patent publication US20070071818A1 (ARDANA BIOSCIENCE LIMITED, priority 2002, published 2007).
Counter-ions that a name gives are not always drawn.

Tests used:
[1] = tested on: erectile response; conditions: oral administration; psychogenic patient
[2] = tested on: female sexual arousal disorder; conditions: oral; menopausal women with female sexual arousal disorder
[3] = tested on: female sexual response; conditions: female sexual dysfunction

SMILES: CN1CCc2cccc3c2[C@H]1Cc1ccc(O)c(O)c1-3 [apomorphine, (6aR)-5,6,6a,7-Tetrahydro-6-methyl-4H-dibenzo[de,g]quinoline-10,11-diol hydrochloride hemihydrate]
- erectile response [1]: induce an erection

SMILES: Cc1ccc(N(CC2=NCCN2)c2cccc(O)c2)cc1 [phentolamine]
- effect across all measures of arousal [2]: mild positive effect

SMILES: CCCc1nn(C)c2c(=O)[nH]c(-c3cc(S(=O)(=O)N4CCN(C)CC4)ccc3OCC)nc12 [sildenafil]
- subjective and physiologic parameters of the female sexual response [3]: significantly improve
